# Results from patent US10364226B2, “Pyridazinone compounds and uses thereof” (priority 2013, dated 2019).
# pEC50, pIC50: −log10 of the molar value. Where two headings read alike, the source gives them in different places.
# What was measured:
# [1] = biological target: EN PA (Influenza A virus, UniProt P15659); assay: EN PA FRET Inhibition Assay; format: biochemical; settings: read-out: Potency
# [2] = test system: Influenza strain A549 A/WSN/33 (H1N1); assay: Influenza Antiviral Assay; format: cell-based, Influenza A virus; settings: neuraminidase fluorescence readout, read-out: % Inhibition
SMILES,pIC50 [1],"pEC50 ([2]; Influenza A virus, A549, 20 h)",pEC50 [2]
CC1CCCN(c2ccccc2-n2cc(O)c(=O)c(C(=O)O)n2)C1 (centres unmarked) [Compound 210],6.00 to 7.00,< 4.00,–
CC(C)C1CCN(c2ccccc2-n2cc(O)c(=O)c(C(=O)O)n2)CC1 [Compound 207],6.00 to 7.00,4.00 to 4.70,–
CNC(=O)c1nn(CC2(Cn3cc(C)c4cccnc43)CCCC2)cc(O)c1=O [Compound 858],6.00 to 7.00,< 4.00,–
CC(C)(C)NC(=O)c1nn(CC2(n3ccc4cc(F)ccc43)CCCC2)cc(O)c1=O [Compound 819],> 7.00,> 4.70,–
Cc1cn(C2(Cn3cc(O)c(=O)c(C(=O)NCCN)n3)CCCC2)c2ncccc12 [Compound 865],> 7.00,> 4.70,–
CNC(=O)c1nn(CC2(n3cc(C(F)(F)F)c4cccnc43)CCCC2)cc(OC(=O)C(C)(C)C)c1=O [Compound 695],> 7.00,> 4.70,–
CNC(=O)c1nn(CC2(n3cc(C)c4cccnc43)C[C@@H]3[C@@H](CO)[C@@H]3C2)cc(O)c1=O (some centres unmarked) [Compound 885],6.00 to 7.00,< 4.00,–
CNC(=O)c1nn(CC2(n3cc(C)c4ccccc43)CCCC2)cc(O)c1=O [Compound 740],> 7.00,> 4.70,–
CNC(=O)c1nn(CC2(c3ccc4cc(C)cnc4c3)CCCC2)cc(O)c1=O [Compound 890],> 7.00,> 4.70,–
CNC(=O)c1nn(CC2(c3ccc4c(C)cccc4c3)CCCC2)cc(O)c1=O [Compound 897],> 7.00,> 4.70,–
CNC(=O)c1nn(CC2(n3cc(Cl)c4cc(Cl)cnc43)CCCC2)cc(O)c1=O [Compound 887],> 7.00,> 4.70,–
CC1(C)CCC(Cn2cc(O)c(=O)c(C(=O)NCc3ccccc3)n2)(c2ccccc2)C1 (centres unmarked) [Compound 796],6.00 to 7.00,< 4.00,–
Cc1cn(C2(Cn3cc(O)c(=O)c(C(=O)NCC(C)(C)CNC(=O)OC(C)(C)C)n3)CCCC2)c2ncccc12 [Compound 869],6.00 to 7.00,> 4.70,–
CNC(=O)c1nn(CCN2c3ccccc3COc3ccccc32)cc(O)c1=O [Compound 842],6.00 to 7.00,< 4.00,–
CNC(=O)c1nn(CCc2ccccc2OC)cc(O)c1=O [Compound 604],≤ 6.00,< 4.00,–
CS(=O)(=O)NC(=O)c1nn(CC2(c3cccc(C(F)(F)F)c3)CCCC2)cc(O)c1=O [Compound 512],6.00 to 7.00,> 4.70,–
CS(=O)(=O)Nc1cccc(-n2cc(O)c(=O)c(C(=O)O)n2)c1 [Compound 17],6.00 to 7.00,< 4.00,–
C[C@@H](NC(=O)c1nn(CC2(n3cc(Cl)c4cccnc43)CCCC2)cc(O)c1=O)C(F)(F)F [Compound 771],6.00 to 7.00,> 4.70,–
CCc1cccc(C2(Cn3cc(O)c(=O)c(C(=O)NC)n3)CCCC2)c1 [Compound 733],> 7.00,> 4.70,–
CNC(=O)c1nn(CC2(c3ccc(F)c(C(F)(F)F)c3)CCCC2)cc(O)c1=O [Compound 783],> 7.00,> 4.70,–
NC(=O)c1nn(CC2(c3ccccc3)CCCC2)cc(O)c1=O [Compound 708],> 7.00,> 4.70,–
O=C(NCc1cncnc1)c1nn(CC2(c3ccccc3)CCCC2)cc(O)c1=O [Compound 693],> 7.00,> 4.70,–
Cc1cn(C2(Cn3cc(O)c(=O)c(C(=O)NCc4ccc(F)c(Cl)c4)n3)CCCC2)c2ncccc12 [Compound 757],> 7.00,> 4.70,–
CNC(=O)c1nn(-c2ccccc2-c2ccccc2-c2ccccc2)cc(O)c1=O [Compound 518],6.00 to 7.00,> 4.70,–
CNC(=O)c1nn(CC2(n3cc(C)c4cc(Cl)cnc43)CCCC2)cc(O)c1=O [Compound 851],> 7.00,> 4.70,–

SMILES,pIC50 [1],"pEC50 ([2]; Influenza A virus, A549, 20 h)",pEC50 [2]
CNC(=O)c1nn(CC(C)(C)c2cccc(C(F)(F)F)c2)cc(O)c1=O [Compound 645],> 7.00,> 4.70,–
O=C(Nc1ccccc1)c1nn(CC2(c3ccccc3)CCCC2)cc(O)c1=O [Compound 639],6.00 to 7.00,4.00 to 4.70,–
CN(Cc1ccccc1-n1cc(O)c(=O)c(C(=O)O)n1)C1CCCCC1 [Compound 19],6.00 to 7.00,< 4.00,–
CCn1cc(C2(Cn3cc(O)c(=O)c(C(=O)NC)n3)CCCC2)c2ccccc21 [Compound 862],6.00 to 7.00,< 4.00,–
CC(C)(C)OC(=O)n1cc(CCn2cc(O)c(=O)c(C(=O)O)n2)c2ccccc21 [Compound 404],> 7.00,< 4.00,–
CNC(=O)c1nn(CC2(n3cc(C(N)=O)c4cccnc43)CCCC2)cc(O)c1=O [Compound 883],> 7.00,< 4.00,–
O=C(O)c1nn(CCc2c[nH]c3ccccc23)cc(O)c1=O [Compound 407],6.00 to 7.00,< 4.00,–
C#Cc1cn(C2(Cn3cc(O)c(=O)c(C(=O)NC)n3)CCCC2)c2ncc(C)cc12 [Compound 875],> 7.00,> 4.70,–
CNC(=O)c1nn(CCN2c3ccccc3CCc3ccccc32)cc(O)c1=O [Compound 840],6.00 to 7.00,< 4.00,–
CC1(C)CCC(Cn2cc(O)c(=O)c(C(=O)NCc3ccc(F)c(Cl)c3)n2)(c2ccccc2)C1 (centres unmarked) [Compound 797],6.00 to 7.00,> 4.70,–
CNC(=O)c1nn(CC2(n3ccc4cc(C)cnc43)CCCC2)cc(O)c1=O [Compound 872],> 7.00,> 4.70,–
CNC(=O)c1nn(CC(c2ccccc2)c2ccccc2)cc(O)c1=O [Compound 660],6.00 to 7.00,< 4.00,–
O=C(O)c1nn(-c2ccccc2N2CCCCC2)cc(O)c1=O [Compound 11],6.00 to 7.00,< 4.00,–
Cc1cn(C2(Cn3cc(O)c(=O)c(C(=O)C(C)C)n3)CCCC2)c2ncccc12 [Compound 833],> 7.00,> 4.70,–
O=C(O)c1nn(-c2ccccc2-c2ccccc2-c2ccccc2)cc(O)c1=O [Compound 35],> 7.00,> 4.70,–
CCOC(=O)c1nn(CCc2ccccc2C(F)(F)F)cc(O)c1=O [Compound 408],≤ 6.00,4.00 to 4.70,–
CC1(C)CC(Cn2cc(O)c(=O)c(C(=O)NCc3ccc(F)c(Cl)c3)n2)(c2ccccc2)C1 [Compound 799],> 7.00,> 4.70,–
O=C1NCCCCCc2ccc3ccn(c3c2)C2(CCCC2)Cn2cc(O)c(=O)c1n2 [Compound 826],> 7.00,> 4.70,–
CNC(=O)c1nn(CC2(n3cc(-c4ccccc4)c4cccnc43)CCCC2)cc(O)c1=O [Compound 742],> 7.00,–,> 4.70
Cc1cn(C2(Cn3cc(O)c(=O)c(C(=O)NCCO)n3)CCCC2)c2ncccc12 [Compound 761],> 7.00,> 4.70,–
CNC(=O)c1nn(CC(C)(C)c2ccc(C)cc2)cc(O)c1=O [Compound 607],6.00 to 7.00,> 4.70,–
O=C(O)c1nn(CCC2CCCCC2)cc(O)c1=O [Compound 421],6.00 to 7.00,< 4.00,–
"CCN(CC)S(=O)(=O)c1ccc(OC)c(-n2cc(O)c(=O)c(C(=O)O)n2)c1 [Compound 2, 1-(5-(N,N-diethylsulfamoyl)-2-methoxyphenyl)-5-hydroxy-4-oxo-1,4-dihydropyridazine-3-carboxylic acid]",6.00 to 7.00,< 4.00,–
O=C(NCC1CC1)c1nn(CC2(c3cccc(C(F)(F)F)c3)CCCC2)cc(O)c1=O [Compound 510],6.00 to 7.00,> 4.70,–
